Values of other authors, collected in patent US20230003743A1, “METHODS AND COMPOSITIONS FOR TREATING OR PREVENTING AN ALLERGY OR ANAPHYLAXIS” (THE CHILDREN'S MEDICAL CENTER CORPORATION, priority 2020, published 2023).

Test system: humanized mouse model of FA
Conditions: SCID mice engrafted with human CD34+ hematopoietic stem cells, peanut-sensitized, enterally challenged with PN

Omalizumab
anaphylactic response (hypothermia, increases in plasma tryptase levels) upon enteral peanut challenge: ablates this anaphylactic response
